Assay results: patent US12564638B2 (SHANGHAITECH UNIVERSITY, priority 2019, dated 2026)
Read-outs that look alike come from different tables or passages of the source. Each block holds one molecule with its values, some of them ahead of it.

Columns and labels:
Type in all cases: cell-based
[1] = tested on: HCC827 cells (EGFR Exon19 del, non-small cell lung cancer cells); experiment: Cell viability assay (WST/CCK8), HCC827 cells; details: Homo sapiens, HCC827, 72 h, read-out: IC50 (half inhibitory concentration)
Outline: (§1)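 Cells seeded at 3 000/well in RPMI1640 complete medium, dosed next day with compounds (top 10 μM, 3-fold, 10 points) for 72 h. Viability read with WST (CCK8) reagent; DMSO as negative control, EGFR TKIs as positive controls; IC50 determined.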

[2] = tested on: PC9 cells (EGFR Exon 19 del, non-small cell lung cancer cells); experiment: Cell viability assay (WST/CCK8), PC9 cells; details: Homo sapiens, read-out: IC50 (half inhibitory concentration)
Outline: as §1

[3] = tested on: H1975 (EGFR T790M+L858R mutation, non-small cell lung cancer cell line); experiment: Cell viability assay (WST/CCK8), H1975 cells; details: Homo sapiens, read-out: IC50 (half inhibitory concentration)
Text: (§2) The cell lines with abnormal EGFR expression used are as follows: • HCC827 cells (EGFR Exon19 del, non-small cell lung cancer cells); • PC9 cells (EGFR Exon 19 del, non-small cell lung cancer cells); • PC9BracA1 (EGFR Exon 19 del+T790M, non-small cell lung cancer cells) • H1975 (EGFR Exon T790M+L858R mutation, non-small cell lung cancer cell line) • BT474 cells (HER2 positive breast cancer cells)
(§3) All of the half inhibitory concentrations (IC50) of these compounds of the present invention were determined with WST reagent from Fuyuan Biotec Company. The specific experiment procedures are as follows: Cancer cells were planted in 96-well-plate at the density of 3 000 cells per well with 100 μL RPMI1640 completed culture medium. In the next day, compounds with indicated concentrations were added to the cells, DMSO was used as the negative control and the EGFR TKIs were used to treat cells as the positive groups. After 72 hours drug treatment, cell viability was measured by using the WST reagent following the instructions.

[4] = tested on: PC9BracA1 (EGFR Exon 19 del+T790M, non-small cell lung cancer cells); experiment: Cell viability assay (WST/CCK8), PC9Brac1 cells; details: read-out: IC50 (half inhibitory concentration)
Text: as §2, §3

[5] = tested on: BT474 cells (HER2 positive breast cancer cells); experiment: Cell viability assay (CCK8), BT474 cells; details: Homo sapiens, BT-474, Table 10, BT474, 72 hours, read-out: IC50 (half inhibitory concentration)
Text: as §2
as §3, with “instructions. The growth inhibition curve of the compounds on cells were plotted by Prism GraphPad, and the compounds IC50 calculated from it.” for “instructions.”
The cell viability assays were taken to determine the anti-tumor activity of these indicated compounds in BT474 cells, which can overexpress HER2 protein. The cells were treated with the gradient concentration of these compounds (the maximum concentration: 10 μM; 3-fold dilution ratio, 10 concentration gradients) for 72 hours and then incubated with the CCK8 reagent to determine the cell viability.

[6] = Table 8, osimertinib-based compounds, HCC827, 72 hours, WST
[7] = PC-9, Table 8, osimertinib-based compounds, PC9, 72 hours, WST
[8] = NCI-H1975, Table 8, osimertinib-based compounds, H1975, 72 hours, WST
[9] = Table 8, osimertinib-based compounds, Pc9Brc1, 72 hours, WST
[10] = HCC827 (Exon19 Del), 72 hours, WST (CCK8)
[11] = PC-9, PC9 (Exon19 Del), 72 hours, WST (CCK8)
[12] = NCI-H1975, H1975 (L858R + T790M), 72 hours, WST
[13] = PC9Brac1 (Ex19del + T790M), 72 hours, WST
[14] = Table 6, canertinib-based compounds, HCC827 (Exon19 Del), 72 hours, WST
[15] = PC-9, Table 6, canertinib-based compounds, PC9 (Exon19 Del), 72 hours, WST
[16] = NCI-H1975, Table 7, canertinib-based compounds, H1975 (L858R + T790M)

IC50 [1, 6]: 9 nM
IC50 [2, 7]: 161 nM
IC50 [3, 8]: 117 nM
IC50 [4, 9]: 413 nM
Structure (SMILES): C=CC(=O)Nc1cc(Nc2nccc(-c3cn(C)c4ccccc34)n2)c(OC)cc1N(C)CCN(C)CCCCCCCC#Cc1cccc2c1CN(C1CCC(=O)NC1=O)C2=O (stereo not drawn)

Structure (SMILES): C=CC(=O)Nc1cc(Nc2nccc(-c3cn(C)c4ccccc34)n2)c(OC)cc1N(C)CCN(C)C [Osimertinib, reference compound]
IC50 [1]: 0.36 nM
IC50 ([2]; PC-9, 72 h): 4 nM
IC50 ([3]; NCI-H1975, 72 h): 2 nM
IC50 ([4]; 72 h): 354 nM

IC50 [1, 10]: 12 nM
IC50 [2, 11]: 32.6 nM
IC50 [3, 12]: 114 nM
Structure (SMILES): COc1cc2ncnc(Nc3ccc(F)c(Cl)c3)c2cc1NC(=O)/C=C/CN1CCC(NC(=O)CNc2cccc3c2C(=O)N(C2CCC(=O)NC2=O)C3=O)CC1 (stereo not drawn) [SIAIS249081, (E)-N-(4-((3-chloro-4-fluorophenyl)amino)-7-methoxyquinazolin-6-yl)-4-(4-(2-((2-(2,6-dioxopiperidin-3-yl)-1,3-dioxoisoindolin-4-yl)amino)acetamido)piperidin-1-yl)but-2-enamide]

IC50 [1, 10]: 5 nM
IC50 [2, 11]: 2.9 nM
IC50 [4, 13]: 435 nM
IC50 [5]: 64.9 nM
Structure (SMILES): COc1cc2ncnc(Nc3ccc(F)c(Cl)c3)c2cc1NC(=O)/C=C/CN1CCC(NC(=O)CCCNc2cccc3c2C(=O)N(C2CCC(=O)NC2=O)C3=O)CC1 (stereo not drawn) [SIAIS249083, (E)-N-(4-((3-chloro-4-fluorophenyl)amino)-7-methoxyquinazolin-6-yl)-4-(4-(4-((2-(2,6-dioxopiperidin-3-yl)-1,3-dioxoisoindolin-4-yl)amino)butanamido)piperidin-1-yl)but-2-enamide]

IC50 [1, 10]: 3 nM
IC50 [2, 11]: 0.6 nM
IC50 [4, 13]: 434 nM
IC50 [5]: 6.08 nM
Structure (SMILES): COc1cc2ncnc(Nc3ccc(F)c(Cl)c3)c2cc1NC(=O)/C=C/CN1CCC(NC(=O)CCCCCNc2cccc3c2C(=O)N(C2CCC(=O)NC2=O)C3=O)CC1 (stereo not drawn) [SIAIS249084, (E)-N-(1-(4-((4-((3-chloro-4-fluorophenyl)amino)-7-methoxyquinazolin-6-yl)amino)-4-oxobut-2-en-1-yl)piperidin-4-yl)-6-((2-(2,6-dioxopiperidin-3-yl)-1,3-dioxoisoindolin-4-yl)amino)hexanamide]

IC50 [4, 13]: 954 nM
IC50 [5]: 32.6 nM
Structure (SMILES): COc1cc2ncnc(Nc3ccc(F)c(Cl)c3)c2cc1NC(=O)/C=C/CN1CCC(N2CCNCC2)CC1 [SIAIS262021, (E)-N-(4-((3-chloro-4-fluorophenyl)amino)-7-methoxyquinazolin-6-yl)-4-(4-(piperazin-1-yl)piperidin-1-yl)but-2-enamide]

IC50 [1, 10]: 3.6 nM
IC50 [2, 11]: 11.3 nM
IC50 [3, 12]: 828 nM
Structure (SMILES): COc1cc2ncnc(Nc3ccc(F)c(Cl)c3)c2cc1NC(=O)/C=C/CN1CCC(N2CCN(C(=O)CSc3cccc4c3CN(C3CCC(=O)NC3=O)C4=O)CC2)CC1 (stereo not drawn) [SIAIS262034, (E)-N-(4-((3-chloro-4-fluorophenyl)amino)-7-methoxyquinazolin-6-yl)-4-(4-(4-(2-((2-(2,6-dioxopiperidin-3-yl)-1-oxoisoindolin-4-yl)thio)acetyl)piperazin-1-yl)piperidin-1-yl)but-2-enamide]

IC50 [1, 14]: 6.4 nM
IC50 [2, 15]: 9.7 nM
IC50 [3, 16]: 468 nM
IC50 ([4]; Table 7, canertinib-based compounds, PC9Brca1 (Ex19del + T790M)): 423 nM
Structure (SMILES): C=CC(=O)Nc1cc2c(Nc3ccc(F)c(Cl)c3)ncnc2cc1OCCCN1CCN(C(=O)CCOCCOCCNc2cccc3c2C(=O)N(C2CCC(=O)NC2=O)C3=O)CC1 (stereo not drawn) [SIAIS262127, N-(4-((3-chloro-4-fluorophenyl)amino)-7-(3-(4-(3-(2-(2-((2-(2,6-dioxopiperidin-3-yl)-1,3-dioxoisoindolin-4-yl)amino)ethoxy)ethoxy)propanoyl)piperazin-1-yl)propoxy)quinazolin-6-yl)acrylamide]

IC50 [1, 14]: 6.7 nM
IC50 [2, 15]: 17 nM
IC50 [3, 16]: 430 nM
IC50 [5]: 22.5 nM
Structure (SMILES): C=CC(=O)Nc1cc2c(Nc3ccc(F)c(Cl)c3)ncnc2cc1OCCCN1CCC(N2CCN(C(=O)CCCCSc3cccc4c3CN(C3CCC(=O)NC3=O)C4=O)CC2)CC1 (stereo not drawn) [SIAIS262175, N-(4-((3-chloro-4-fluorophenyl)amino)-7-(3-(4-(4-(5-((2-(2,6-dioxopiperidin-3-yl)-1-oxoisoindolin-4-yl)thio)pentanoyl)piperazin-1-yl)piperidin-1-yl)propoxy)quinazolin-6-yl)acrylamide]

IC50 [1, 6]: 114 nM
IC50 [4, 9]: 973 nM
Structure (SMILES): C=CC(=O)Nc1cc(Nc2nccc(-c3cn(C)c4ccccc34)n2)c(OC)cc1N(C)CCN(C)C(=O)CCCCCSc1cccc2c1CN(C1CCC(=O)NC1=O)C2=O (stereo not drawn) [SIAIS337056, N-(2-((2-acrylamido-5-methoxy-4-((4-(1-methyl-1H-indol-3-yl)pyrimidin-2-yl)amino)phenyl)(methyl)amino)ethyl)-6-((2-(2,6-dioxopiperidin-3-yl)-1-oxoisoindolin-4-yl)thio)-N-methylhexanamide]

IC50 [1, 6]: 47.7 nM
IC50 [3, 8]: 21 nM
Structure (SMILES): C=CC(=O)Nc1cc(Nc2nccc(-c3cn(C)c4ccccc34)n2)c(OC)cc1N(C)CCN(C)C(=O)CCCCCCSc1cccc2c1CN(C1CCC(=O)NC1=O)C2=O (stereo not drawn) [SIAIS337057, N-(2-((2-acrylamido-5-methoxy-4-((4-(1-methyl-1H-indol-3-yl)pyrimidin-2-yl)amino)phenyl)(methyl)amino)ethyl)-7-((2-(2,6-dioxopiperidin-3-yl)-1-oxoisoindolin-4-yl)thio)-N-methylheptanamide]

IC50 [1, 6]: 122 nM
IC50 [3, 8]: 171 nM
Structure (SMILES): C=CC(=O)Nc1cc(Nc2nccc(-c3cn(C)c4ccccc34)n2)c(OC)cc1N(C)CCN(C)C(=O)CCCCCCCCCSc1cccc2c1CN(C1CCC(=O)NC1=O)C2=O (stereo not drawn) [SIAIS337060, N-(2-((2-acrylamido-5-methoxy-4-((4-(1-methyl-1H-indol-3-yl)pyrimidin-2-yl)amino)phenyl)(methyl)amino)ethyl)-10-((2-(2,6-dioxopiperidin-3-yl)-1-oxoisoindolin-4-yl)thio)-N-methyldecanamide]

IC50 [1, 6]: 353 nM
IC50 [2, 7]: 271 nM
IC50 [4, 9]: 686 nM
Structure (SMILES): C=CC(=O)Nc1cc(Nc2nccc(-c3cn(C)c4ccccc34)n2)c(OC)cc1N(C)CCN(C)CCCCCCCCSc1cccc2c1CN(C1CCC(=O)NC1=O)C2=O (stereo not drawn) [SIAIS337084, N-(2-((2-((8-((2-(2,6-dioxopiperidin-3-yl)-1-oxoisoindolin-4-yl)thio)octyl)(methyl)amino)ethyl)(methyl)amino)-4-methoxy-5-((4-(1-methyl-1H-indol-3-yl)pyrimidin-2-yl)amino)phenyl)acrylamide]

IC50 [1, 10]: 0.5 nM
IC50 ([1]; Table 3, poziotinib-based compounds, HCC827 (Exon19 Del), 72 hours, WST (CCK8)): 0.5 nM
IC50 ([2]; PC-9, Table 3, poziotinib-based compounds, PC9 (Exon 19 Del), 72 hours, WST (CCK8)): < 0.1 nM
IC50 [5]: < 0.1 nM
Structure (SMILES): C=CC(=O)N1CCC(Oc2cc3c(Nc4ccc(Cl)c(Cl)c4F)ncnc3cc2OC)CC1 [poziotinib, reference compound]
